Assay results taken from PubChem BioAssay AID330 (DTP/NCI, 2004).
Where “and” joins values, the source holds several entries; their conditions need not be identical. Equal entries are not always repeated. Inconclusive results and toxic doses are left out. The calls were made as follows: active = survival T/C of 150% or more; inactive = T/C below 125% in these data.

Test system: P388 leukemia ip, CD2F1 mice, survival T/C
Test: NCI In Vivo Anticancer Drug Screen. Data for tumor model P388 Leukemia (intraperitoneal) in CD2F1 (CDF1) mice
Conditions: endpoint: median survival time, higher = longer survival
Method in brief: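 Mice carrying the transplanted tumor received test compound or vehicle. Survival was recorded in each group, and the value is the treated-group measurement divided by that of the vehicle-treated control group.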

[1] = dose: 50.0 mg/kg/injection, schedule: Q01DX009 (ip), vehicle: Klucel (hydroxypropylcellulose) (HPC)
[2] = dose: 100.0 mg/kg/injection, schedule: Q01DX009 (ip), vehicle: Klucel (hydroxypropylcellulose) (HPC)
[3] = dose: 200.0 mg/kg/injection, schedule: Q01DX009 (ip), vehicle: Klucel (hydroxypropylcellulose) (HPC)
[4] = dose: 50.0 mg/kg/injection, schedule: Q01DX005 (ip), vehicle: saline with Tween-80
[5] = dose: 100.0 mg/kg/injection, schedule: Q01DX005 (ip), vehicle: saline with Tween-80
[6] = dose: 200.0 mg/kg/injection, schedule: Q01DX005 (ip), vehicle: saline with Tween-80
[7] = dose: 60.0 mg/kg/injection, schedule: Q01DX005 (ip), vehicle: saline with Tween-80
[8] = dose: 120.0 mg/kg/injection, schedule: Q01DX005 (ip), vehicle: saline with Tween-80
[9] = dose: 50.0 mg/kg/injection, schedule: Q01DX009 (ip), vehicle: saline with Tween-80
[10] = dose: 100.0 mg/kg/injection, schedule: Q01DX009 (ip), vehicle: saline with Tween-80
[11] = dose: 25.0 mg/kg/injection, schedule: Q01DX009 (ip), vehicle: saline with Tween-80
[12] = dose: 200.0 mg/kg/injection, schedule: Q01DX009 (ip), vehicle: saline with Tween-80

Measured: T/C

O=C1NC(=O)c2c(Br)c(Br)c(Br)c(Br)c21
inactive: [1] 109 % of control | [2] 109 % of control | [3] 105 % of control | dose: 400.0 mg/kg/injection, schedule: Q01DX009 (ip), vehicle: Klucel (hydroxypropylcellulose) (HPC) 96 % of control

CCOC(=O)CN1CCC(C(O)c2cc3ccccc3[nH]2)CC1 (stereo not drawn)
inactive: dose: 100.0 mg/kg/injection, schedule: Q01DX001 (ip), vehicle: saline 106 % of control | dose: 200.0 mg/kg/injection, schedule: Q01DX001 (ip), vehicle: saline 110 % of control | dose: 400.0 mg/kg/injection, schedule: Q01DX001 (ip), vehicle: saline 109 % of control

c1cc2c(c(-c3nccc4c3CCCC4)n1)CCCC2
inactive: [4] 109 % of control | [5] 109 % of control | [6] 93 % of control

O=C1CCC(C(Sc2ccccc2)Sc2ccccc2)C1 (stereo not drawn)
inactive: [1] 110 % of control | [2] 106 % of control | [3] 93 % of control

CC12Oc3ccc(Cl)cc3C1(C)c1cc(Cl)ccc1O2 (stereo not drawn)
inactive: dose: 50.0 mg/kg/injection, schedule: Q01DX009 (ip), vehicle: acetone 104 % of control | dose: 100.0 mg/kg/injection, schedule: Q01DX009 (ip), vehicle: acetone 102 % of control | dose: 200.0 mg/kg/injection, schedule: Q01DX009 (ip), vehicle: acetone 102 % of control

O=C(Cc1n[nH]c(=S)nc1CC(=O)c1cccnc1)c1cccnc1
inactive: [7] 100 % of control | [8] 96 % of control

CCCc1c(OC)c(OC)c2c(c1C(C)=O)OCO2
inactive: [4] 100 % of control | [5] 100 % of control | [6] 104 % of control

C[CH2][Sn]1([CH2]C)[c]2ccccc2Oc2cccc[c]21
inactive: [9] 109 % of control | [10] 109 % of control

CN(C)P1P(N(C)C)P(N(C)C)P1N(C)C (stereo not drawn)
inactive: [7] 97 % of control | [8] 97 % of control | dose: 240.0 mg/kg/injection, schedule: Q01DX005 (ip), vehicle: saline with Tween-80 95 % of control

C=CC(=O)NC(=O)Nc1ccccc1Cl
inactive: dose: 6.25 mg/kg/injection, schedule: Q01DX009 (ip), vehicle: Klucel (hydroxypropylcellulose) (HPC) 102 % of control | dose: 12.5 mg/kg/injection, schedule: Q01DX009 (ip), vehicle: Klucel (hydroxypropylcellulose) (HPC) 106 % of control | dose: 25.0 mg/kg/injection, schedule: Q01DX009 (ip), vehicle: Klucel (hydroxypropylcellulose) (HPC) 109 % of control and 118 % of control

Cc1cc(NC(=O)Nc2ccc(Cl)cc2)no1
inactive: dose: 100.0 mg/kg/injection, schedule: Q04DX003 (ip), vehicle: saline with Tween-80 100 % of control | dose: 200.0 mg/kg/injection, schedule: Q04DX003 (ip), vehicle: saline with Tween-80 95 % of control | dose: 400.0 mg/kg/injection, schedule: Q04DX003 (ip), vehicle: saline with Tween-80 100 % of control

CC(C)C12CC(COCc3ccccc3)OC1=NC(=O)NC2=O (stereo not drawn)
inactive: [1] 112 % of control | [2] 103 % of control | [3] 94 % of control

CCN(CC)C(=O)C1(C)NS(=O)(=O)c2ccccc2C1=O (stereo not drawn)
inactive: [11] 106 % of control | [9] 98 % of control and 110 % of control and 96 % of control | [10] 98 % of control and 110 % of control and 97 % of control | [12] 95 % of control

Cc1cccc(Cl)c1NC1=NCCO1
inactive: dose: 6.25 mg/kg/injection, schedule: Q04DX003 (ip), vehicle: saline with Tween-80 95 % of control | dose: 12.5 mg/kg/injection, schedule: Q04DX003 (ip), vehicle: saline with Tween-80 95 % of control | dose: 25.0 mg/kg/injection, schedule: Q04DX003 (ip), vehicle: saline with Tween-80 100 % of control

c1ccc(CSc2nnc(NC3CCCCC3)s2)cc1
inactive: [9] 96 % of control | [10] 96 % of control | [12] 100 % of control

COc1ccc(C(=O)C(Br)C(Br)C(=O)O)cc1 (stereo not drawn)
inactive: dose: 12.5 mg/kg/injection, schedule: Q01DX009 (ip), vehicle: saline with Tween-80 114 % of control | [11] 114 % of control | [9] 107 % of control and 121 % of control
